Where two headings read alike, the source gives them in different places.
Experiments:
[1] = target: ETA receptor; conditions: cited from earlier work
[2] = system: ETB receptors; conditions: at concentrations up to 100 μM; cited from earlier work
[3] = target: T1, human ETA receptors (Homo sapiens, UniProt P25101); assay: Endothelin binding inhibition, Binding Test #1: competition with 125I-ET-1 for ETA receptors on TE 671 cell membranes; conditions: incubation at 24° C. (values marked †)
T1 construct: endogenous in cells; host or cells: TE 671 cells (ATCC HTB 139), membrane preparation
T1 sequence (P25101 21-427): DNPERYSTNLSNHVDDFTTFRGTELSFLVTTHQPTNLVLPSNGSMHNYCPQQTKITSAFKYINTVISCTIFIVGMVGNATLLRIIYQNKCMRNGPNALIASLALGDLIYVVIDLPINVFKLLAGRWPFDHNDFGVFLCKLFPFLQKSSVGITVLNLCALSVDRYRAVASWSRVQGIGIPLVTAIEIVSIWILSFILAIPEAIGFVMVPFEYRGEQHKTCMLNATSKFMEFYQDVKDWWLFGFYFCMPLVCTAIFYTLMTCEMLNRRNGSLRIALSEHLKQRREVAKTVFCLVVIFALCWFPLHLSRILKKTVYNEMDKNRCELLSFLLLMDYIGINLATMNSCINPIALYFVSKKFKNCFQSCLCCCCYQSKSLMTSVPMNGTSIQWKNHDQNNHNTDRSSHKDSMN

[4] = Oral half-life and peak plasma levels; type: in vivo; conditions: for POt½ in Rat: oral; for Peak Plasma Levels: rat, in vivo
Text: As used herein, bioavailability refers to the rate and extent of absorption. Methods for determining bioavailability are well known to those of skill in the art. For example, bioavailability of any of the compounds described herein can be determined empirically by administration of the compound to an animal, followed by taking blood samples over time and measuring the blood concentration of the compound. In vivo half life (t1/2) is defined as the time it takes for the concentration of the compound in the blood to be reduced by one-half. Estimations of the area under the curve for intravenous administration can be used to estimate the area under the curve for oral administration, ylelding bioavailability data. See, e.g., Milo Gibal (1991) Biopharmaceutics and Pharmacology, 4th edition (Lea and Sediger).
Table 2 lists oral half-life, bioavailability, and in vivo activity of selected exemplary compounds. The in vivo activity was measured in a pulmonary hypertension model and is a measure of the activity of the compounds at selected dosages.

[5] = system: Pulmonary Hypertension model; assay: Pulmonary Hypertension model; type: in vivo, rat; parameters: key: ++: effective at 5 mg/kg; −: no effect at 5 mg/kg; +: effective at 15 mg/kg
Description: As used herein, efficacy refers to the maximal effect that can be produced by a compound. Efficacy can be determined by methods known to those of skill in the art. For example, it can be determined by the properties of the compound and its receptor-effector system and is reflected in the plateau of the concentration-effect curve. In vivo efficacy refers to efficacy which is determined in an animal model. For example, in vivo efficacy of the compounds described herein can be determined by hypoxia-induced pulmonary hypertension in rat. See, e.g., DiCarlo et al. (1995) Am. J. Physiol. 269:[…]-[…]. Table 2 lists oral half-life, bioavailability, and in vivo activity of selected exemplary compounds. The in vivo activity was measured in a pulmonary hypertension model and is a measure of the activity of the compounds at selected dosages.

[6] = target: T2, human ETB receptor (Homo sapiens, UniProt P24530); assay: Endothelin binding inhibition, Binding Test #2: competition with 125I-ET-1 for ETB receptors on transfected COS7 cell membranes; conditions: incubation at 24° C. (values marked †)
T2 construct: expressed in transfected cells; host or cells: COS7 cells
T2 sequence (P24530 27-442): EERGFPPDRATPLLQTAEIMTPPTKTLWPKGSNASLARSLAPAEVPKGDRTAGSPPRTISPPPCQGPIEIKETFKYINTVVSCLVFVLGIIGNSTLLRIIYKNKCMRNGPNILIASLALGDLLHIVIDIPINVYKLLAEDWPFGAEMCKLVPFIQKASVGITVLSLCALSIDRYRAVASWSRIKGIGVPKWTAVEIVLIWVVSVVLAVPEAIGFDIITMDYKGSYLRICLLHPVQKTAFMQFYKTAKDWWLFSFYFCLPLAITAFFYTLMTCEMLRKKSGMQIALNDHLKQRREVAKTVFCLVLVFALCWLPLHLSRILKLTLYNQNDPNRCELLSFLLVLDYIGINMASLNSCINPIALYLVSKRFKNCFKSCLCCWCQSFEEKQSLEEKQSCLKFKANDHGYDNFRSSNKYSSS
Outline: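 Membranes from COS7 cells transfected with human ETB receptor, prepared in HEPES pH 7.4 with aprotinin, MnCl2/DNase treatment at 37° C for 30 min. Test compounds compete with 125I-labeled ET-1 for receptor binding; membrane used at 1 μg/50 μL binding buffer.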

[7] = system: isolated vascular strips; conditions: contractile agent; cited from earlier work
[8] = Papp; type: in vitro ADME; conditions: not told

| Compound | IC50 [3] | POt½ in Rat [4] | Peak Plasma Levels [4] | IC50 [6] | melting point | Papp [8] | IC50 ([1]; aortic smooth muscle) | IC50 ([1]; cultured aortic smooth muscle cells) | IC50 ([1]; ventricle membranes) | inhibition of binding [2] | in vivo Efficacy [5] | EC50 [7] |
| --- | --- | --- | --- | --- | --- | --- | --- | --- | --- | --- | --- | --- |
| cyclo(D-Glu-L-Ala-allo-D-Ile-L-Leu-D-Trp) [BE-18257B] |  |  |  |  |  |  | 1400 nM | 500 nM | 800 nM | fails to inhibit binding |  |  |
| Cc1noc(NS(=O)(=O)c2ccsc2C(=O)Nc2c(C)c(C)c(C)c(C)c2C)c1Cl [N-(4-chloro-3-methyl-5-isoxazolyl)-2-(pentamethylphenylaminocarbonyl)thiophene-3-sulfonamide] | 29.9 nM |  |  | 31000 nM | 196 to 198 °C |  |  |  |  |  |  |  |
| endothelin-1 |  |  |  |  |  |  |  |  |  |  |  | 0.4 nM |
| Cc1cc2c(cc1CC(=O)c1sccc1S(=O)(=O)Nc1onc(C)c1Cl)OCO2 [N-(4-chloro-3-methyl-5-isoxazolyl)-2-[2-methyl-4,5-(methylenedioxy)phenylacetyl]thiophene-3-sulfonamide] | 14.6 nM | 4.1 h | 173 µg/mL | 52800 nM |  | 2.32 ×10⁻⁶ cm/s |  |  |  |  | ++ |  |

Continued, in another order:

| IC50 [3] | POt½ in Rat [4] | Peak Plasma Levels [4] | IC50 [6] | melting point | Papp [8] | Compound | IC50 ([1]; aortic smooth muscle) | IC50 ([1]; cultured aortic smooth muscle cells) | IC50 ([1]; ventricle membranes) | inhibition of binding [2] | in vivo Efficacy [5] | EC50 [7] |
| --- | --- | --- | --- | --- | --- | --- | --- | --- | --- | --- | --- | --- |
| 0.88 nM | 25.6 h | 13 µg/mL | 7540 nM |  |  | Cc1cc(C)c(NC(=O)c2sccc2S(=O)(=O)Nc2noc(C)c2Cl)c(C)c1CC#N [N-(4-chloro-5-methyl-3-isoxazolyl)-2-(3-cyanomethyl-2,4,6-trimethylphenylaminocarbonyl)thiophene-3-sulfonamide] |  |  |  |  | − |  |
| 1.52 nM | 3.9 h | 20 µg/mL | 57200 nM |  |  | Cc1cc(C)c(NC(=O)c2sccc2S(=O)(=O)Nc2onc(C)c2Cl)c(C)c1C#N [N-(4-chloro-3-methyl-5-isoxazolyl)-2-(3-cyano-2,4,6-trimethylphenylaminocarbonyl)thiophene-3-sulfonamide] |  |  |  |  | ++ |  |
| 1.18 nM | 3.4 h | 40.2 µg/mL | 38800 nM |  | 1.78 ×10⁻⁶ cm/s | Cc1cc(C)c(NC(=O)c2sccc2S(=O)(=O)Nc2onc(C)c2Cl)c(C)c1CC#N [N-(4-chloro-3-methyl-5-isoxazolyl)-2-(3-cyanomethyl-2,4,6-trimethylphenylaminocarbonyl)thiophene-3-sulfonamide] |  |  |  |  | ++ |  |

— patent publication US6632829B2, “Sulfonamides and derivatives thereof that modulate the activity of endothelin” (Texas Biotechnology Corp., priority 1996, dated 2003)
